Measured values as given in US8598128B2, “Fructosylated puerarin, and preparation method and use thereof” (priority 2010, dated 2013).
Converted amounts (≈) assume the structure as drawn. “Also recorded” adds a separate entry of the source.

Experiments:
[1] = system: human chronmyelogenors leukemia cell strain K562; experiment: K562 cell toxicity test (MTT); assay type: cell-based; conditions: 48 h; for OD value: MTT 490 nm
Description: K-562 cells were cultured in an incubator at 37° C. with 5% CO2 saturated humidity in the RPMI-1640 complete culture medium containing inactivated calf serum with volume fraction of 10%, 100 U penicillin and streptomycin. […] For each drug concentration, 6 complex cases were provided. Put back the culture plate into the cell incubator, after 48 h, add 20 μL MTT (5 mg/mL) solution and continue to incubate it in the incubator for 4 h, then each case was added with triple liquid 100 μL, put it overnight to allow the crystal to fully dissolve. Vibrate it with oscillator for 20 min and determine the light absorption at 490 nm with a fully automatic ELISA instrument, and calculate the average suppression rate, suppression rate (%)=(control group A490−test group A490)/control group A490), the experiment was repeated three times. Relevant analysis and Student t tests in Microsoft Excel 2003 were used, and data are presented in X±SD.

[2] = system: human breast cancer cell strain MDA-MB-231; experiment: MDA-MB-231 cell toxicity test (MTT); assay type: cell-based; conditions: 48 h; for OD value: MTT 490 nm
Description: MDA-MB-231 cells were cultured in an incubator at 37° C. with 5% CO2 saturated humidity in the RPMI-1640 complete culture medium containing inactivated fetal calf serum with volume fraction of 10%, 100 U penicillin and streptomycin. Take MDA-MB-231 cells in logarithmic phase (primary culture bottle) and discard the culture solution. […] Prepare the suspended solution of cells and adjust the cell concentration with appropriate amount of complete culture medium to 3×10^4/mL. Fed the cells into a tissue culture plate 96, with cell suspended liquid of 180 μL in each case, and put the culture plate into a cell incubator (37° C., 5% CO2) for conventional culture. When cells grew to 50%-70%, add drug liquid of different concentration. […] For DMSO solvent control group, add 20 μL of PBS containing […] and for the blank group, add 20 μL of PBS. For each drug concentration, 6 complex cases were provided. Put back the culture plate into the cell incubator, after 48 h, add 20 μL MTT (5 mg/mL) solution and continue to incubate it in the incubator for 4 h, then remove the supernatant and dry it with tissue, add 200 μL DMSO into each case and vibrate it in the rocker without light for 15 min, to allow the crystal to fully dissolve. Determine the light absorption at 490 nm with a fully automatic ELISA instrument, and calculate the average suppression rate, suppression rate (%)=(control group A490−test group A490)/control group A490), the experiment was repeated three times. Relevant analysis and Student t tests in Microsoft Excel 2003 were used, and data are presented in X±SD.

[3] = Solubility determination at 25° C.
myocardio ischemia mice = experiment: T wave amplitude variation in pituitrin acute myocardial ischemia model; assay type: in vivo, Sprague-Dawley mice (SD mice)
Text: Embodiment 6: […] Pituitrin injection was purchased from Nanjing Xinbai Pharmaceutical Co., Ltd., normal saline injection from Nanjing Xiaoying Pharmaceutical Co., Ltd., and DMSO, PG, and anhydrous ethanol were of chromatographic class. […] The data were presented with, and tested with t. P<0.05 indicates substantial difference, P<0.01 indicates very substantial difference; and P<0.001 indicates extremely substantial difference.

[4] = Metabokinetic experiment in blood after caudal vein injection; conditions: 50 mg/kg caudal vein, n = 5
Description: Embodiment 5: Metabokinetic Experiment of monofructosyl-β(2,6)-Puerarin in Blood
In HPLC analysis, DIONEX was used, with chromatographic column as Discovery HS C18 ([…], 5 μm), feeding specimen volume 20 μL, column temperature 30° C., the detector was UVD170U, with detection wavelength of 254 nm, flowing phase: A, water, B, chromatographic class methanol, A:B=80:20, at flow rate of 1 mL/min.
Sprague-Dawley mice (SD mice), with weight of 180-220 g, male and female in half, provided by Medical Experiment Center of Nantong University, with production permit No.: SCXK (Su) 20080010.
SD mice were randomly divided into 2 groups of 5 each, fasting for 12 hours before experiment. Puerarin and monofructosyl-β(2,6)-puerarin were respectively dissolved in 20% 1,2-PG normal saline, and injected into mouse caudal vein at a dosage of 50 mg/kg. After injection, at t=0 min, 4 min, 7 min, 17 min, 40 min, 60 min, 120 min and 180 min, 0.5 mL of blood was taken from orbit and put into centrifugal tubes treated with liquaemin, then it was immediately separated by centrifuging at 3000 rpm for 15 min, to separate out plasma for analysis.
Plasma of 100 μL was precisely taken and put into test tube, and 400 μL of methanol sedimented protein was added, they were mixed on vortex mixer for 5 min, then centrifuged at 10000 rpm for 10 min, and the supernatant was used for HPLC analysis.
The plasma concentration of the puerarin and monofructosyl-β(2,6)-puerarin specimens prepared as per 3.2 was obtained by calculation with external reference method. The data obtained were analyzed using pharmacokinetics statistic software.

## O=c1c(-c2ccc(O)cc2)coc2c([C@@H]3O[C@H](CO[C@]4(CO)O[C@H](CO)[C@@H](O)[C@@H]4O)[C@@H](O)[C@H](O)[C@H]3O)c(O)ccc12 [monofructosyl-β(2,6)-puerarin]
[1]; 1 μmol/L
  Average suppression rate: 7.85%
  OD value: 0.950 ± 0.041
[1]; 5 μmol/L
  Average suppression rate: 7.53%
  OD value: 0.950 ± 0.018
[1]; 10 μmol/L
  Average suppression rate: 6.76%
  OD value: 0.958 ± 0.022
[1]; 20 μmol/L
  Average suppression rate: 6.16%
  OD value: 0.963 ± 0.055
[1]; 50 μmol/L
  Average suppression rate: 11.14%
  OD value: 0.913 ± 0.048
[1]; 100 μmol/L
  Average suppression rate: 16.41%
  OD value: 0.858 ± 0.028
[1]; 150 μmol/L
  Average suppression rate: 29.84%
  OD value: 0.720 ± 0.055
[1]; 200 μmol/L
  Average suppression rate: 46.41%
  OD value: 0.550 ± 0.086
[2]; 0.5 μmol/L
  Average suppression rate: 3.68%
  OD value: 0.676 ± 0.021
[2]; 1 μmol/L
  Average suppression rate: 5.02%
  OD value: 0.666 ± 0.069
[2]; 5 μmol/L
  Average suppression rate: 3.47%
  OD value: 0.677 ± 0.081
[2]; 10 μmol/L
  Average suppression rate: 4.20%
  OD value: 0.672 ± 0.085
[2]; 50 μmol/L
  Average suppression rate: 20.17%
  OD value: 0.560 ± 0.062
[2]; 100 μmol/L
  Average suppression rate: 28.70%
  OD value: 0.500 ± 0.068
[2]; 150 μmol/L
  Average suppression rate: 44.04%
  OD value: 0.392 ± 0.041
[2]; 200 μmol/L
  Average suppression rate: 59.42%
  OD value: 0.285 ± 0.067
[3]
  solubility: 26.0 mg/mL (≈ 44.9 mM)
[3]; puerarin 5.2 g/L
  solubility relative to puerarin: 5 times
Myocardio ischemia mice; 12.5 mg/kg, 15 s after Pit
  T wave amplitude variation: 0.082 ± 0.060 mv
Myocardio ischemia mice; 12.5 mg/kg, 30 s after Pit
  T wave amplitude variation: 0.097 ± 0.084 mv
Myocardio ischemia mice; 12.5 mg/kg, 1 min after Pit
  T wave amplitude variation: 0.051 ± 0.034 mv
Myocardio ischemia mice; 12.5 mg/kg, 2 min after Pit
  T wave amplitude variation: 0.102 ± 0.071 mv
Myocardio ischemia mice; 12.5 mg/kg, 5 min after Pit
  T wave amplitude variation: 0.069 ± 0.040 mv
Myocardio ischemia mice; 12.5 mg/kg, 10 min after Pit
  T wave amplitude variation: 0.068 ± 0.038 mv
Myocardio ischemia mice; 25 mg/kg, 15 s after Pit
  T wave amplitude variation: 0.053 ± 0.027 mv
Myocardio ischemia mice; 25 mg/kg, 30 s after Pit
  T wave amplitude variation: 0.105 ± 0.076 mv
Myocardio ischemia mice; 25 mg/kg, 1 min after Pit
  T wave amplitude variation: 0.116 ± 0.088 mv
Myocardio ischemia mice; 25 mg/kg, 2 min after Pit
  T wave amplitude variation: 0.112 ± 0.087 mv
Myocardio ischemia mice; 25 mg/kg, 5 min after Pit
  T wave amplitude variation: 0.067 ± 0.038 mv
Myocardio ischemia mice; 25 mg/kg, 10 min after Pit
  T wave amplitude variation: 0.054 ± 0.038 mv
Myocardio ischemia mice; 50 mg/kg, 15 s after Pit
  T wave amplitude variation: 0.092 ± 0.067 mv
Myocardio ischemia mice; 50 mg/kg, 30 s after Pit
  T wave amplitude variation: 0.118 ± 0.087 mv
Myocardio ischemia mice; 50 mg/kg, 1 min after Pit
  T wave amplitude variation: 0.109 ± 0.084 mv
Myocardio ischemia mice; 50 mg/kg, 2 min after Pit
  T wave amplitude variation: 0.106 ± 0.091 mv
Myocardio ischemia mice; 50 mg/kg, 5 min after Pit
  T wave amplitude variation: 0.080 ± 0.070 mv
Myocardio ischemia mice; 50 mg/kg, 10 min after Pit
  T wave amplitude variation: 0.082 ± 0.058 mv
Myocardio ischemia mice; 12.5, 25 and 50 mg/kg, compared with puerarin
  effect against myocardial ischemia (T wave) in words: can better resist myocardial ischemia than puerarin; also recorded: has better effect to resist myocardio ischemia than puerarin
[4]
  AUC (0-t): 5523.446 ± 688.104 mg/Lxmin
  CL (whole body clearance): 9 ± 1 mL/min/kg
  MRT (0-t): 25.707 ± 2.324 min
  MRT (0-∞): 27.453 ± 2.976 min
  Y: 0.256 ± 0.032 L/kg
  t½ (half life of clearance): 19.741 ± 2.34 min
